{"source": "patent US7531565B2", "about": "“Imidazolidin-2-one derivatives as selective androgen receptor modulators (SARMS)” (Janssen Pharmaceutica, N.V., priority 2004, dated 2009)", "data": [{"molecular_target": "T1, androgen receptor (Rattus norvegicus, UniProt P15207)", "T1 sequence (P15207 1-902)": "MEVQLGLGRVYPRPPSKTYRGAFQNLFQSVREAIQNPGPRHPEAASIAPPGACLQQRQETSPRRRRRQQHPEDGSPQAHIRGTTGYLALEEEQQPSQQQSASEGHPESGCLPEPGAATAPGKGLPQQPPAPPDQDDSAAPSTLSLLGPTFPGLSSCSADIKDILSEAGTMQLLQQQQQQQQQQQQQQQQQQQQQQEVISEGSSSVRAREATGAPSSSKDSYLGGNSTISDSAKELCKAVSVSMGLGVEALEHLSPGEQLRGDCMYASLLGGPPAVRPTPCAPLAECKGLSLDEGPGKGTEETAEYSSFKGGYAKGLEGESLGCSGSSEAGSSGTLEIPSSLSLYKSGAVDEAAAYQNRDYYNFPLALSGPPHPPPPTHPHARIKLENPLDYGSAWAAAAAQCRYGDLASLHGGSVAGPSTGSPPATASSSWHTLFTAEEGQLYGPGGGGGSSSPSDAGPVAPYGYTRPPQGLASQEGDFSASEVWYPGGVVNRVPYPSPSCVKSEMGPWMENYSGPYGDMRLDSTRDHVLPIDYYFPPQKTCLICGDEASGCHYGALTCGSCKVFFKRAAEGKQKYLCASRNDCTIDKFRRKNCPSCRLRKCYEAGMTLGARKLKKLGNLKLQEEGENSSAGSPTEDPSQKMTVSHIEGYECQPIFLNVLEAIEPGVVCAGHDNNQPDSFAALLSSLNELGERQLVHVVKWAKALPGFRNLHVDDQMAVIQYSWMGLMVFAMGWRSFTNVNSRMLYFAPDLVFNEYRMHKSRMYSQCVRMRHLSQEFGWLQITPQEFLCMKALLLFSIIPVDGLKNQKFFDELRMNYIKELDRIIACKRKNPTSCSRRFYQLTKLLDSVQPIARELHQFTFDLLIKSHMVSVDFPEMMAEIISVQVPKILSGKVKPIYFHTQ", "test": "COS-7 whole-cell androgen receptor binding assay, adenovirus transduction", "design": "expressed in transfected cells", "conditions": "3 μM (3000 nM); COS-7 cells, [3H]R1881, AdEasy+rAR", "experimental": "(§1) COS-7 cells were plated in 96-well plates at 20,000 cells per well, in a solution of DMEM/F12 (GIBCO) containing 10% (v/v) charcoal-treated fetal bovine serum (Hyclone) and lacking phenol red. The cells were then incubated overnight at 37° C. in 5% (v/v) humidified CO2.\n(§2) Test compound solutions were prepared by diluting the test compound in 100% (v/v) DMSO, if necessary. Each dilution yielded a solution which was 625× the final desired test concentration.\n(§3) Next, 1 mL of DMEM/F12 lacking phenol red was pipetted into each of the wells of a 2-mL 96-well assay block. Then 4 μL of the 625× test compound dilutions were pipetted into each well of the assay block. The wells were carefully mixed by pipette.\n(§4) In a 15 mL or 50 mL sterile centrifuge tube, a 2.5 nM dilution of tritiated methyl-trienolone in DMEM/F12 lacking phenol red ([^3H]R1881; Perkin-Elmer) was prepared.\n(§5) In a 15 mL or 50 mL sterile centrifuge tube, a dilution in DMEM/F12 of the adenovirus AdEasy+rAR at a moi of 1:50 per well was prepared.\n(§6) The medium was removed from the 96-well plates by inversion and the plates dried very briefly, inverted, on a sterile towel. As soon as possible after medium removal, 40 μL of the diluted test compound was added to each well, in duplicate. To each well was then added 40 μL of the 2.5 nM [^3H]R1881 and 20 μL of the diluted adenovirus. The plates were then incubated for 48 hours at 37° C. in 5% (v/v) humidified CO2.\n(§7) The medium was removed from the above incubated plates by inversion and dried. Each well was then washed with 0.35 mL of 1×PBS. The PBS was then removed from the plates by inversion and the plates dried.\n(§8) To each well was then added 50 μL of 0.5% (v/v) Triton X-100 (Sigma) in 1×PBS and the plates placed on a rotary shaker for 5 min. The contents of each well were then transferred to an OptiPlate-96 (Packard) scintillation plate. To each well was then added 0.2 mL of Microscint-20 (Packard) and the wells counted on a TopCount (Packard).\n(§9) Percent inhibition was determined by testing dilutions of the test compound (usually duplicates of 10 μM) in the binding assay. Counts per well were measured and percents of inhibition determined. Androgen receptor binding IC50s were determined by testing serial dilutions of the test compound (usually duplicate ten half-log dilutions starting at 10 μM) in the binding assay. Counts per well were measured and IC50s determined by linear regression.\n(§10) Representative compounds of the present invention were tested for binding to the androgen receptor according to the procedure described above with results as listed in Table C. Unless otherwise noted, COS binding % inhibition was determined using a concentration of 3000 nM. For compounds tested more than once, each result is listed separately in Table 3 below.", "units": {"% Inhibition @ 3 μM": "%"}, "values": [{"smiles": "CC1(C(=O)Nc2cccc(C(F)(F)F)c2)CN(c2ccc(F)cc2)C(=O)N1", "note": "(racemic) [Compound 6g]", "% Inhibition @ 3 μM": "−40"}, {"smiles": "COC(=O)C1(C)CN(c2ccc(C#N)c(C(F)(F)F)c2)C(=O)N1", "note": "(racemic) [Compound 4e]", "% Inhibition @ 3 μM": 27}, {"smiles": "CC1(C(=O)Nc2cc(C(F)(F)F)cc(C(F)(F)F)c2)CN(c2ccc(F)cc2)C(=O)N1", "note": "(racemic) [Compound 6h]", "% Inhibition @ 3 μM": 76}, {"smiles": "COC(=O)C1(C)CN(c2ccc(OC)cc2)C(=O)N1", "note": "(racemic) [Compound 4c]", "% Inhibition @ 3 μM": "−8"}, {"smiles": "CC1(C(=O)Nc2ccc([N+](=O)[O-])c(C(F)(F)F)c2)CN(c2ccccc2)C(=O)N1", "note": "(racemic) [Compound 6e]", "% Inhibition @ 3 μM": 37}, {"smiles": "COC(=O)C1(C)CN(c2ccccc2)C(=O)N1", "note": "(racemic) [Compound 4b]", "% Inhibition @ 3 μM": 16}, {"smiles": "CC1(C(=O)Nc2ccc(C(F)(F)F)nc2)CN(c2ccccc2)C(=O)N1", "note": "(racemic) [Compound 6j]", "% Inhibition @ 3 μM": 18}, {"smiles": "COC(=O)C1(C)CN(c2ccc(Cl)c(C(F)(F)F)c2)C(=O)N1", "note": "(racemic) [Compound 4d]", "% Inhibition @ 3 μM": "−30"}, {"smiles": "COc1ccc(N2CC(C)(C(=O)O)NC2=O)cc1", "note": "(racemic) [Compound 5c]", "% Inhibition @ 3 μM": "−11"}, {"smiles": "CC1(C(=O)Nc2ccccc2)CN(c2ccccc2)C(=O)N1", "note": "(racemic) [Compound 6b]", "% Inhibition @ 3 μM": 22}, {"smiles": "COc1ccc(N2CC(C)(C(=O)Nc3ccc(C#N)c(C(F)(F)F)c3)NC2=O)cc1", "note": "(racemic) [Compound 6c]", "% Inhibition @ 3 μM": 24}, {"smiles": "CC1(C(=O)Nc2ccc(C#N)c(C(F)(F)F)c2)CN(c2ccccc2)C(=O)N1", "note": "(racemic) [Compound 6d]", "% Inhibition @ 3 μM": 40}, {"smiles": "CC1(C(=O)O)CN(c2ccc(Cl)c(C(F)(F)F)c2)C(=O)N1", "note": "(racemic) [Compound 5d]", "% Inhibition @ 3 μM": "−26"}, {"smiles": "CC1(C(=O)O)CN(c2ccccc2)C(=O)N1", "note": "(racemic) [Compound 5b]", "% Inhibition @ 3 μM": 15}]}, {"molecular_target": "T1, androgen receptor", "test": "COS-7 whole-cell androgen receptor binding assay, adenovirus transduction", "design": "expressed in transfected cells", "conditions": "read-out: % Inhibition @ 3 μM", "experimental": "as §1, §2, §3, §4, §5, §6, §7, §8, §9, §10", "units": {"inhibition at 3 µM": "%"}, "values": [{"smiles": "CC1(C(=O)O)CN(c2ccc(F)cc2)C(=O)N1", "note": "(stereo not shown) [Compound 5a, 1-(4-Fluoro-phenyl)-4-methyl-2-oxo-imidazolidine-4-carboxylic acid]", "inhibition at 3 µM": -14}, {"smiles": "CC1(C(=O)Nc2ccc(C#N)c(C(F)(F)F)c2)CN(c2ccc(F)cc2)C(=O)N1", "note": "(stereo not shown) [Compound 6a, 1-(4-Fluoro-phenyl)-4-methyl-2-oxo-imidazolidine-4-carboxylic acid (4-cyano-3-trifluoromethyl-phenyl)-amide]", "inhibition at 3 µM": 43}]}]}
